Results from paper PMC7076710, “Synthesis, Identification, and Structure–Activity Relationship Analysis of GATA4 and NKX2-5 Protein–Protein Interaction Modulators” (Journal of Medicinal Chemistry, 2019).

Biological target: T1, GATA4–NKX2-5 transcriptional synergy (Mus musculus, UniProt P42582+Q08369)
T1 construct: expressed in transfected cells; host or cells: COS-1
Test: GATA4–NKX2-5 transcriptional synergy luciferase reporter assay (3xNKE reporter, COS-1 cells)
Assay type: cell-based
Description: To screen compounds for the GATA4–NKX2-5 interaction, we have developed a luciferase reporter assay based on their property to activate gene transcription synergistically through the NKX2-5 binding site on DNA.[28] In this assay, we transfected mammalian COS-1 cells with protein expression vectors for GATA4 and NKX2-5 proteins together with artificial luciferase reporter vector containing three high affinity binding sites for NKX2-5 (NKE). […] All 257 compounds were tested in two concentrations, 3 and 10 μM. Compounds either inhibited, enhanced, or had no effect on the GATA4–NKX2-5 transcriptional synergy. To investigate the selectivity of the active compounds, we tested their effects on NKX2-5 transcriptional activity by using the same luciferase reporter vector as in transcriptional synergy assay with three NKE sites (Figure 3B). Furthermore, we used GATA luciferase reporter assay to examine if compounds have an effect on GATA4 transcriptional activity. In this assay, we cotransfected the cells with a GATA4 protein expression vector and a reporter vector with tandem GATA4 binding sites (Figure 3C). Previously we have reported that compound 1 inhibited the GATA4–NKX2-5 transcriptional synergy at micromolar concentrations (IC50 = 3 μM).[29]
The plasmids expressing mouse GATA4 protein, pMT2-GATA4, and empty pMT2 were gifts from D. B. Wilson (Department of Pediatrics, St. Louis Children’s Hospital, St. Louis, MO).[44] The plasmids expressing mouse NKX2-5 protein, pMT2-NKX2-5, have been described earlier.[28] The luciferase reporter plasmid used in GATA4–NKX2-5 transcriptional synergy assay and NKX transcriptional assay, pGL3-3xHA, contains three high affinity binding sites for NKX2-5.[28] The luciferase reporter plasmid used in GATA transcriptional assay, NP-112, contains tandem GATA-sites and minimal promoter of rat brain natriuretic peptide (BNP) gene.[45] The pGL3-BNP luciferase reporter containing −534/+4 bp rat BNP proximal promoter described previously was used in hypertrophy assay.[46]
The primary screening assay of compounds’ effect on GATA4–NKX2-5 transcriptional synergy and COS-1 cell culturing has been described earlier.[33] […] (Kinnunen et al., unpublished observation). Briefly, COS-1 cells were seeded at 14 000 cells/well in Isoplate-96 microplates (PerkinElmer, Turku, Finland) and grown overnight. The cells were transfected with the luciferase reporter plasmid pGL3-3xHA 100 ng/well and equal amounts of expression plasmids pMT2-GATA4 and pMT2-NKX2-5 total 50 ng/well. To verify the synergistic effect, the cells were transfected with pMT2-GATA4 or pMT2-NKX2-5 25 ng/well, and the total DNA concentration was adjusted to 50 ng/well with empty pMT2 plasmid. In NKX2-5 and GATA4 luciferase reporter assays, the cells were transfected with reporter plasmid pGL3-3xHA or NP-112 (100 ng/well) and expression plasmid pMT2-NKX2-5 or pMT2-GATA4 (25 ng/well). The ratio of DNA/transfection reagent (Fugene 6, Promega) was 1:3 in all assays. The transfections were performed in serum and antibiotics free media for 6 h. The cells were treated with compounds or vehicle (0.1% DMSO) for 24 h, and the luminescence was measured using neolite Reporter Gene Assay System (PerkinElmer, Turku, Finland) and Victor2 plate reader (PerkinElmer, Turku, Finland).
Raw luciferase data were analyzed in Excel, and clear outliers were removed from triplicates by using the Grubb’s test. Data analysis was performed using R.[49] The luciferase data were first normalized on the basis of the combined mean value of controls. For data visualization and creation of figures, the following R packages were used: ggplot2, cowplot, RColorBrewer, and pheatmap. The heatmaps of the toxicity data were produced with GraphPad Prism 7.00 (GraphPad Software, La Jolla, CA). Statistical significance of luciferase reporter assay data was evaluated by randomized block analysis of variance followed by Dunnett’s post hoc test. […]

[1] = COS-1, compound at 3 µM, luciferase reporter activity, % of control
[2] = COS-1, compound 3 µM, luciferase reporter activity, spread in separate STDEV column
[3] = COS-1, 3 µM, luciferase reporter activity, % of control
[4] = 3 µM compound, GATA4–NKX2-5 transcriptional synergy reporter, COS-1 cells
[5] = 10 µM compound, GATA4–NKX2-5 transcriptional synergy reporter, COS-1 cells
[6] = COS-1, compound 3 µM, luciferase reporter activity relative to control
[7] = COS-1, compound 10 µM, luciferase reporter activity relative to control

T1 sequence (Q08369 whole entry): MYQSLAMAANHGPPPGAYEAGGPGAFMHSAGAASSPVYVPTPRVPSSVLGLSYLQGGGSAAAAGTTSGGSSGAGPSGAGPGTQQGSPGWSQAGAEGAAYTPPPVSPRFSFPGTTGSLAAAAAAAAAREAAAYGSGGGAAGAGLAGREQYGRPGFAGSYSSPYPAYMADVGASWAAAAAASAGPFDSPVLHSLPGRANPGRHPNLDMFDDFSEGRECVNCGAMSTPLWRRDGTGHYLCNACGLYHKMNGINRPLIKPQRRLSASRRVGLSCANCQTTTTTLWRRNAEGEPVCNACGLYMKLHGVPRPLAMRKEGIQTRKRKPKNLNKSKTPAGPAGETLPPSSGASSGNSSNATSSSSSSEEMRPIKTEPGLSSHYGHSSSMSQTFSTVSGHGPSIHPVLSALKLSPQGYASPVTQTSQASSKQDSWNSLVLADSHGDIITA
T1 sequence (P42582 whole entry): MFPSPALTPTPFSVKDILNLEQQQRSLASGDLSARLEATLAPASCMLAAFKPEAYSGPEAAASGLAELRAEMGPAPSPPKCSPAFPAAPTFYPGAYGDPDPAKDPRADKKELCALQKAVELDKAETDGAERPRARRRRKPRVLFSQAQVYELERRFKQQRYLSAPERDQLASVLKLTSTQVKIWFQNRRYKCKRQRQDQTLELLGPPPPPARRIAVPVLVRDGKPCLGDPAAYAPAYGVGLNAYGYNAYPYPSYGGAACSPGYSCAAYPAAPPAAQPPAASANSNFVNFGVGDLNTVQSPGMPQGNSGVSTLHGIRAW

| SMILES | activity at 3 µM [1] [%] | activity at 3 µM [6] [%] | other results |
| --- | --- | --- | --- |
| CCC(O)c1ccc(OCc2c(-c3ccccc3)noc2C)cc1 (racemic) [Compound 34d, (rac)-1-[4-[(5-Methyl-3-phenylisoxazol-4-yl)methoxy]phenyl]propan-1-ol] | 96.5 |  |  |
| Cc1onc(-c2ccccc2)c1C(=O)Nc1ccc2c(c1)C(=O)CC2 [Compound 4a, 5-Methyl-N-(3-oxo-2,3-dihydro-1H-inden-5-yl)-3-phenylisoxazole-4-carboxamide] |  |  | activity at 3 µM [2]: 103% |
| CCN(CCO)c1ccc(NC(=O)c2c(-c3ccccc3)noc2C)cc1 [Compound 4b] | 93.7 |  |  |
| CCN(CC)c1ccc(NC(=O)c2c(-c3ccccc3)noc2C)cc1Cl [Compound 4c] |  |  | activity at 3 µM [2]: 92.6% |
| Cc1onc(-c2ccccc2)c1C(=O)Nc1ccc(N(C)C)cc1 [Compound 4d, N-[4-(Dimethylamino)phenyl]-5-methyl-3-phenylisoxazole-4-carboxamide] |  |  | activity at 3 µM [3]: 88.1% |
| Cc1cc(NC(=O)c2c(-c3ccccc3)noc2C)ccc1C(C)C [Compound 4e] |  |  | activity at 3 µM [3]: 95.2% |
| Cc1onc(-c2ccccc2)c1C(=O)Nc1ccc(OCCN2CCOCC2)cc1 [Compound 4h] |  |  | activity at 3 µM [3]: 89.8% |
| CC[N+](C)(c1ccc(NC(=O)c2c(-c3ccccc3)noc2C)cc1)C(C)C (centres unmarked) [Compound 7, N-Ethyl-N-isopropyl-N-methyl-4-(5-methyl-3-phenylisoxazole-4-carboxamido)benzenaminium Iodide] | 88.4 |  |  |
| CCN(c1ccc(NC(=O)c2c(-c3ccccc3)noc2C)cc1[N+](=O)[O-])C(C)C [Compound 8, N-[4-[Ethyl(isopropyl)amino]-3-nitrophenyl]-5-methyl-3-phenylisoxazole-4-carboxamide] | 76.3 |  |  |
| CCN(c1ccc(NC(=O)c2c(-c3ccccc3)noc2C)cc1N)C(C)C [Compound 9, N-[3-Amino-4-[ethyl(isopropyl)amino]phenyl]-5-methyl-3-phenylisoxazole-4-carboxamide] | 92.6 |  |  |
| Cc1onc(-c2ccccc2)c1C(=O)Nc1ccc(C(=O)OCC#N)cc1 [Compound 10a, Cyanomethyl 4-(5-Methyl-3-phenylisoxazole-4-carboxamido)benzoate] |  |  | activity at 3 µM [4]: 95% |
| Cc1onc(-c2ccccc2)c1C(=O)Nc1ccc(C(=O)OCCN(C)C)cc1 [Compound 10d] |  |  | activity at 3 µM [2]: 99.6%; activity at 10 µM (COS-1, compound 10 µM, luciferase reporter activity, spread in separate STDEV column): 115% |
| C#Cc1ccc(NC(=O)c2c(-c3ccccc3)noc2C)cc1 [Compound 15, N-(4-Ethynylphenyl)-5-methyl-3-phenylisoxazole-4-carboxamide] |  |  | activity at 3 µM [4]: 93.2% |
| CCN(CC)c1ccc(N(Cc2c(-c3ccccc3)noc2C)C(C)=O)cc1 [Compound 16, N-[4-(Diethylamino)phenyl]-N-[(5-methyl-3-phenylisoxazol-4-yl)methyl]acetamide] |  |  | activity at 3 µM [4]: 93.1% |
| CCN(CC)c1ccc(/N=C/c2c(-c3ccccc3)noc2C)cc1 [Compound 19, (E)-N^1,N^1-Diethyl-N^4-[(5-methyl-3-phenylisoxazol-4-yl)methylene]benzene-1,4-diamine] |  |  | activity at 3 µM [4]: 102%; activity at 10 µM [5]: 99.7% |
| CCN(CC)c1ccc(NCc2c(-c3ccccc3)noc2C)cc1 [Compound 20, N^1,N^1-Diethyl-N^4-[(5-methyl-3-phenylisoxazol-4-yl)methyl]benzene-1,4-diamine] |  |  | activity at 3 µM [4]: 85.3%; activity at 10 µM [5]: 104% |
| CCN(CC)c1ccc(NS(=O)(=O)c2c(-c3ccccc3)noc2C)cc1 [Compound 21, N-[4-(Diethylamino)phenyl]-5-methyl-3-phenylisoxazole-4-sulfonamide] |  | 104 |  |
| Cc1onc(-c2ccccc2)c1COc1ccc([N+](=O)[O-])cc1 [Compound 21b] |  |  | activity at 3 µM [3]: 94% |
| CCN(CC)c1ccc(NC(=S)c2c(-c3ccccc3)noc2C)cc1 [Compound 23, N-[4-(Diethylamino)phenyl]-5-methyl-3-phenylisoxazole-4-carbothioamide] | 90.6 |  |  |
| CCN(CC)c1ccc(/N=C(\SC)c2c(-c3ccccc3)noc2C)cc1 [Compound 24a] | 72.7 |  |  |

| SMILES | activity at 3 µM [1] [%] | activity at 3 µM [6] [%] | other results |
| --- | --- | --- | --- |
| CCN(CC)c1ccc(/N=C(\SCCF)c2c(-c3ccccc3)noc2C)cc1 [Compound 24b] | 122 |  | activity at 10 µM (COS-1, compound at 10 µM, luciferase reporter activity, % of control): 108% |
| CCN(CC)c1ccc(N(CCF)C(=O)c2c(-c3ccccc3)noc2C)cc1 [Compound 25b] |  | 81.6 |  |
| CCN(CC)c1ccc(N(Cc2ccccc2)C(=O)c2c(-c3ccccc3)noc2C)cc1 [Compound 25c] |  |  | activity at 3 µM [3]: 80.2% |
| CCN(CC)c1ccc(N(C)C(=S)c2c(-c3ccccc3)noc2C)cc1 [Compound 26] |  | 92.9 |  |
| CCN(CC)c1ccc(C(=O)Nc2c(-c3ccccc3)noc2C)cc1 [Compound 27] | 98.5 |  |  |
| CCN(CC)c1ccc(CN(C)c2c(-c3ccccc3)noc2C)cc1 [Compound 30a, N-[4-(Diethylamino)benzyl]-N,5-dimethyl-3-phenylisoxazol-4-amine] |  | 103 |  |
| CCN(CC)c1ccc(CN(C(=O)Nc2ccc(C#N)cc2)c2c(-c3ccccc3)noc2C)cc1 [Compound 30d] |  | 90 |  |
| CCN(CC)c1ccc(/C=N/c2c(-c3ccccc3)noc2C)cc1 [Compound 31, (E)-N-[4-(Diethylamino)benzylidene]-5-methyl-3-phenylisoxazol-4-amine] |  | 94.1 |  |
| CCCOC(=O)c1ccc(OCc2c(-c3ccccc3)noc2C)cc1 [Compound 34c, Propyl 4-[(5-Methyl-3-phenylisoxazol-4-yl)methoxy]benzoate] |  | 97.7 | activity at 10 µM [7]: 107% |
| Cc1onc(-c2ccccc2)c1COc1ccc(C(=O)OCc2ccoc2)cc1 [Compound 35c] |  | 114 | activity at 10 µM [7]: 101% |
| Cc1onc(-c2ccccc2)c1COc1ccc(C(=O)OCC(C)C)cc1 [Compound 35e] |  | 87.7 |  |
| Cc1onc(-c2ccccc2)c1COc1ccc(C(=O)N(C)CCCO)cc1 [Compound 36a] |  | 106 | activity at 10 µM [7]: 105% |
| CCN(CC)C(=O)c1ccc(OCc2c(-c3ccccc3)noc2C)cc1 [Compound 36b] |  | 79.3 |  |
| Cc1onc(-c2ccccc2)c1COc1ccc(C(=O)O)cc1 [Compound 38, 4-[(5-Methyl-3-phenylisoxazol-4-yl)methoxy]benzoic Acid] |  | 102 |  |
| CCN(CC)c1ccc(NC(=O)c2c(-c3ccc([N+](=O)[O-])cc3)noc2C)cc1 [Compound 39a] |  |  | activity at 3 µM [3]: 89.2%; activity at 10 µM (COS-1, 10 µM, luciferase reporter activity, % of control): 99.8% |
| CCN(CC)c1ccc(NC(=O)c2c(-c3c(Cl)cccc3Cl)noc2C)cc1 [Compound 39e, 3-(2,6-Dichlorophenyl)-N-[4-(diethylamino)phenyl]-5-methylisoxazole-4-carboxamide] | 88.9 |  |  |
| CCN(CC)c1ccc(NC(=O)c2c(-c3c(Cl)ccc([N+](=O)[O-])c3Cl)noc2C)cc1 [Compound 39f, 3-(2,6-Dichloro-3-nitrophenyl)-N-[4-(diethylamino)phenyl]-5-methylisoxazole-4-carboxamide] | 76.3 |  |  |
| CCN(CC)c1ccc(NC(=O)c2c(-c3ccccc3[N+](=O)[O-])noc2C)cc1 [Compound 39h] | 89.5 |  |  |
| CCN(CC)c1ccc(NC(=O)c2c(-c3ccc(Br)cc3)noc2C)cc1 [Compound 39i] |  |  | activity at 3 µM [4]: 95.1% |
